Test system: B16 cells gene expression
Assay: RNA-Seq (DEGs, GSEA, heatmaps) of B16 cells
Conditions: KTC1101 0.2μM, B16 cells, GSEA KEGG

Which “NES, mmu00600 Sphingolipid metabolism” value does the source give for `COc1cc(N)cc2c1nc(C(F)F)n2-c1nc(N2CCCOCC2)nc(N2CCOCC2)n1` [KTC1101, 2-(difluoromethyl)-4-methoxy-1-(4-morpholino-6-(1,4-oxazepan-4-yl)-1,3,5-triazin-2-yl)-1H-benzo[d]imidazol-6-amine] here?
Its value is -0.9518.

And the “NES, mmu00860 Porphyrin metabolism” value?
The value was -1.036.

What about the “NES, mmu00980 Metabolism of xenobiotics by cytochrome P450” value of the same compound?
The value was -1.182.

And the “NES, mmu00982 Drug metabolism - cytochrome P450” value?
The value was -1.185.

What about the “NES, mmu01250 Biosynthesis of nucleotide sugars” value of the same compound?
Its value is -1.14.

What about the “NES, mmu01522 Endocrine resistance” value of the same compound?
Its value is 0.9546.

And the “NES, mmu01523 Antifolate resistance” value?
Its value is -0.7817.

What about the “NES, mmu02010 ABC transporters” value of the same compound?
Its value is -0.733.

And the “NES, mmu03008 Ribosome biogenesis in eukaryotes” value?
The value was 0.4012.

What about the “NES, mmu03015 mRNA surveillance pathway” value of the same compound?
The value was -0.5314.

What about the “NES, mmu03018 RNA degradation” value of the same compound?
The value was -0.9036.

What about the “NES, mmu03022 Basal transcription factors” value of the same compound?
The value was -0.6056.

And the “NES, mmu03040 Spliceosome” value?
Its value is -0.8341.

What about the “NES, mmu03060 Protein export” value of the same compound?
Its value is -1.073.

And the “NES, mmu03082 ATP-dependent chromatin remodeling” value?
The value was 0.5087.

What about the “NES, mmu03083 Polycomb repressive complex” value of the same compound?
The value was 0.285.

And the “NES, mmu03250 Viral life cycle - HIV-1” value?
The value was -0.5849.

And the “NES, mmu03410 Base excision repair” value?
The value was 0.509.

What about the “NES, mmu03420 Nucleotide excision repair” value of the same compound?
Its value is -0.5668.

What about the “NES, mmu03430 Mismatch repair” value of the same compound?
Its value is -0.5004.

What about the “NES, mmu03460 Fanconi anemia pathway” value of the same compound?
Its value is -1.065.

What about the “NES, mmu04014 Ras signaling pathway” value of the same compound?
The value was -1.059.

And the “NES, mmu04068 FoxO signaling pathway” value?
The value was 0.8311.

And the “NES, mmu04070 Phosphatidylinositol signaling system” value?
Its value is -0.719.

What about the “NES, mmu04071 Sphingolipid signaling pathway” value of the same compound?
Its value is -0.7752.

And the “NES, mmu04115 p53 signaling pathway” value?
Its value is 0.8074.

What about the “NES, mmu04120 Ubiquitin mediated proteolysis” value of the same compound?
Its value is -0.8155.

And the “NES, mmu04130 SNARE interactions in vesicular transport” value?
The value was -0.572.

And the “NES, mmu04136 Autophagy - other” value?
Its value is 0.5764.

What about the “NES, mmu04137 Mitophagy - animal” value of the same compound?
Its value is -1.12.

And the “NES, mmu04140 Autophagy - animal” value?
The value was -0.941.

What about the “NES, mmu04144 Endocytosis” value of the same compound?
Its value is 0.5953.

What about the “NES, mmu04146 Peroxisome” value of the same compound?
The value was 0.8534.

And the “NES, mmu04148 Efferocytosis” value?
The value was 0.8875.

What about the “NES, mmu04150 mTOR signaling pathway” value of the same compound?
Its value is -1.035.

What about the “NES, mmu04152 AMPK signaling pathway” value of the same compound?
The value was -1.036.

What about the “NES, mmu04210 Apoptosis” value of the same compound?
Its value is 0.7025.

What about the “NES, mmu04211 Longevity regulating pathway” value of the same compound?
The value was 0.8953.

And the “NES, mmu04213 Longevity regulating pathway - multiple species” value?
The value was 0.9083.

And the “NES, mmu04215 Apoptosis - multiple species” value?
The value was 0.9536.

What about the “NES, mmu04216 Ferroptosis” value of the same compound?
The value was -1.019.

What about the “NES, mmu04217 Necroptosis” value of the same compound?
Its value is -1.0231.

What about the “NES, mmu04270 Vascular smooth muscle contraction” value of the same compound?
The value was 0.9765.

What about the “NES, mmu04360 Axon guidance” value of the same compound?
Its value is 1.086.

And the “NES, mmu04392 Hippo signaling pathway - multiple species” value?
The value was 1.0712.

And the “NES, mmu04514 Cell adhesion molecules” value?
The value was 1.133.

And the “NES, mmu04520 Adherens junction” value?
Its value is 0.8769.

What about the “NES, mmu04530 Tight junction” value of the same compound?
The value was -0.672.

And the “NES, mmu04550 Signaling pathways regulating pluripotency of stem cells” value?
Its value is 1.1205.

And the “NES, mmu04611 Platelet activation” value?
Its value is 0.9386.

And the “NES, mmu04612 Antigen processing and presentation” value?
The value was 0.9078.

And the “NES, mmu04622 RIG-I-like receptor signaling pathway” value?
The value was 0.797.

What about the “NES, mmu04623 Cytosolic DNA-sensing pathway” value of the same compound?
Its value is 1.118.

And the “NES, mmu04650 Natural killer cell mediated cytotoxicity” value?
The value was 0.8466.

What about the “NES, mmu04658 Th1 and Th2 cell differentiation” value of the same compound?
Its value is 1.107.

And the “NES, mmu04660 T cell receptor signaling pathway” value?
Its value is 0.5971.

What about the “NES, mmu04662 B cell receptor signaling pathway” value of the same compound?
Its value is 0.8546.

What about the “NES, mmu04666 Fc gamma R-mediated phagocytosis” value of the same compound?
Its value is -1.143.

And the “NES, mmu04670 Leukocyte transendothelial migration” value?
Its value is 0.7018.

And the “NES, mmu04714 Thermogenesis” value?
Its value is -1.042.

What about the “NES, mmu04720 Long-term potentiation” value of the same compound?
The value was 0.7614.

And the “NES, mmu04723 Retrograde endocannabinoid signaling” value?
The value was 1.004.

And the “NES, mmu04726 Serotonergic synapse” value?
Its value is 1.185.

And the “NES, mmu04727 GABAergic synapse” value?
The value was 1.114.

What about the “NES, mmu04728 Dopaminergic synapse” value of the same compound?
Its value is 0.9578.

What about the “NES, mmu04730 Long-term depression” value of the same compound?
Its value is 1.063.

What about the “NES, mmu04750 Inflammatory mediator regulation of TRP channels” value of the same compound?
The value was 0.9151.

And the “NES, mmu04910 Insulin signaling pathway” value?
Its value is 1.052.

And the “NES, mmu04912 GnRH signaling pathway” value?
The value was 1.125.

What about the “NES, mmu04915 Estrogen signaling pathway” value of the same compound?
Its value is 0.9405.

What about the “NES, mmu04916 Melanogenesis” value of the same compound?
The value was 0.9564.

And the “NES, mmu04917 Prolactin signaling pathway” value?
The value was 0.9333.

And the “NES, mmu04920 Adipocytokine signaling pathway” value?
The value was 1.108.

What about the “NES, mmu04929 GnRH secretion” value of the same compound?
Its value is -1.07.

What about the “NES, mmu04930 Type II diabetes mellitus” value of the same compound?
Its value is 1.078.

And the “NES, mmu04932 Non-alcoholic fatty liver disease” value?
The value was -1.05.

And the “NES, mmu04934 Cushing syndrome” value?
The value was 0.9692.

What about the “NES, mmu04936 Alcoholic liver disease” value of the same compound?
Its value is 0.7413.

And the “NES, mmu04960 Aldosterone-regulated sodium reabsorption” value?
Its value is 1.176.

What about the “NES, mmu04961 Endocrine and other factor-regulated calcium reabsorption” value of the same compound?
The value was 0.9748.

What about the “NES, mmu04962 Vasopressin-regulated water reabsorption” value of the same compound?
The value was 1.132.

From publication PMC10938783, “A novel pan-PI3K inhibitor KTC1101 synergizes with anti-PD-1 therapy by targeting tumor suppression and immune activation” (Molecular Cancer, 2024)
